Read-outs that look alike come from different tables or passages of the source.
What was measured:
IIIB strain of HIV-1 = experiment: Anti-HIV-1 activity: protection of infected MT-2 cells, MTT colorimetric method; type: cell-based; conditions: read-out: EC50
MT-2 human T-cells = experiment: Cytotoxicity: inhibition of MT-2 cell growth; type: cell-based; conditions: cytotoxicity, read-out: IC50
Excerpt: (§1) The preparation of the analogues 4a-h involved the reaction between 2-bromothiazole 1 with the corresponding 5-amino-2-R-phenol 2, followed by reaction with 4-bromo-2-methyl-2-butene in presence of Cs2CO3 as a base (Scheme 1; see Table 1 for antiviral activities (EC50) and cytotoxicities (IC50) of these compounds, as determined using human MT-2 cells infected with IIIB strain of HIV-1).
(§2) See, Ruiz-Caro, supra. and Lin, et al., Biochem. Pharmacol. 1994, 47, 171-174.

[1] = Cytotoxicity: inhibition of MT-2 cell growth; type: cell-based, human; conditions: human, MT-2 T-cells; Table 2b; MT-2 cells
Excerpt: as §1, §2

[2] = Human immunodeficiency virus 1, IIIB, MT2, Table of bicyclic-heteroaryl phenyl amines, MT-2 cell assays
[3] = Homo sapiens, MT2, Table of bicyclic-heteroaryl phenyl amines, MT-2 cell assays
[4] = Table of bicyclic-heteroaryl phenyl amines, MT-2 cell assays

| Compound | EC50 (IIIB strain of HIV-1; [2]) | IC50 (MT-2 human T-cells; [3]) | EC50 (IIIB strain of HIV-1; [4]) | IC50 (MT-2 human T-cells; [4]) | further results |
| --- | --- | --- | --- | --- | --- |
| CC(C)=CCOc1cc(Nc2ncccn2)ccc1Cl [Compound 39d, N-(4-Chloro-3-(3-methylbut-2-enyloxy)phenyl)pyrimidin-2-amine] |  |  |  |  | EC50 (IIIB strain of HIV-1; Human immunodeficiency virus 1, IIIB, MT2, Table 1a, heteroaryl derivatives, N/A read as no activity): 200 nM; IC50 (MT-2 human T-cells; Homo sapiens, MT2, Table 1a, MT-2 cells): 2.5 µM; IC50 (MT-2 human T-cells; Homo sapiens, MT2, Table 2a, MT-2 cells): < 0.2 µM; CC50 [1]: 2500 nM |
| CC(C)=CCOc1cc(Nc2nccc3cccn23)ccc1Cl [compound 59] | 130 nM | 17 µM |  |  |  |
| CC(C)=CCOc1cc(Nc2nccn3cccc23)ccc1Cl [compound 60] | 19 nM | 20 µM |  |  |  |
| CC(C)=CCOc1cc(Nc2ncc3ccoc3n2)ccc1Cl [compound 61] | 130 nM | 20 µM |  |  |  |
| CC(C)=CCOc1cc(Nc2nccc3ccoc23)ccc1Cl [furopyridine 56a] |  |  | 80 nM | 21 µM |  |
| CC(C)=CCOc1cc(Nc2nccc3ccoc23)ccc1C#N [furopyridine 56b] |  |  | 11 nM | 0.091 µM |  |
| CC(C)=CCOc1cc(Nc2nccc3ccccc23)ccc1Cl [isoquinoline 62a] |  |  | 34 nM | 19 µM |  |
| CC(C)=CCOc1cc(Nc2nccc3ccccc23)ccc1C#N [isoquinoline 62b] |  |  | 3 nM | 4.4 µM |  |
| N-(4-Chloro-3-(cyclopentenyloxy)phenyl)thiazol-2-amine [Compound 20d] |  |  |  |  | EC50 (IIIB strain of HIV-1; Table 3, thiazoles 18-23, N/A read as no activity): 5000 nM; IC50 (MT-2 human T-cells; Table 3, MT-2 cells): 15 µM |

Reference: patent US9018209B2, “Compounds and methods for the treatment of viruses and cancer” (Yale University, priority 2005, dated 2015)
